The supplement of paper PMC11061612

How the values were obtained:
Test in all cases: Bliss excess, mean over the matrix (fraction); higher = more synergy
[1] = test system: 23132-87 (Gastric Carcinoma)
Method in brief: (§1)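 Cell lines grown in DMEM/F12 or RPMI with 10% FBS were plated in 1536-well plates and held 24 hours at 37°C, 5% CO2 before 72 hours of exposure to two-drug dose matrices, with DMSO typically at 0.2%. CellTiter-Glo 2.0 luminescence gave viability, which was converted to inhibition. Vehicle wells were set to 0 and blank wells to 1. Combination Emax is the second-highest inhibition in the matrix, and Bliss excess is the observed combination effect minus the expected EA + EB − EA·EB, where EA and EB are the single-agent effects.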

[2] = test system: CAL-120 (Breast Carcinoma)
Method in brief: as §1

[3] = test system: CAL-62 (Thyroid Gland Carcinoma)
Method in brief: as §1

GB-1 (Glioblastoma) = test system: GB-1 (Glioblastoma)
Method in brief: as §1

[4] = test system: HCT-15 (Colorectal Carcinoma)
Method in brief: as §1

[5] = test system: HSC-39 (Gastric Carcinoma)
Method in brief: as §1

[6] = test system: L-1236 (Hodgkin's Lymphoma)
Method in brief: as §1

[7] = test system: LB996-RCC (Kidney Carcinoma)
Method in brief: as §1

[8] = test system: LXF-289 (Lung Adenocarcinoma)
Method in brief: as §1

[9] = test system: OPM-2 (Plasma Cell Myeloma)
Method in brief: as §1

[10] = test system: OVMIU (Ovarian Carcinoma)
Method in brief: as §1

[11] = test system: PSN1 (Pancreatic Carcinoma)
Method in brief: as §1

[12] = test system: RCM-1 (Colorectal Carcinoma)
Method in brief: as §1

[13] = test system: REH (B-Lymphoblastic Leukemia)
Method in brief: as §1

[14] = test system: RERF-GC-1B (Gastric Carcinoma)
Method in brief: as §1

[15] = test system: RKN (Other Solid Carcinomas)
Method in brief: as §1

[16] = test system: SU-DHL-10 (B-Cell Non-Hodgkin's Lymphoma)
Method in brief: as §1

[17] = test system: TE-8 (Esophageal Squamous Cell Carcinoma)
Method in brief: as §1

[18] = test system: VAL (B-Cell Non-Hodgkin's Lymphoma)
Method in brief: as §1

WM278 (Melanoma) = test system: WM278 (Melanoma)
Method in brief: as §1

Compound	Bliss excess [1]	Bliss excess [2]	Bliss excess [3]	Bliss excess (GB-1 (Glioblastoma))	Bliss excess [4]	Bliss excess [5]	Bliss excess [6]	Bliss excess [7]	Bliss excess [8]	Bliss excess [9]	Bliss excess [10]	Bliss excess [11]	Bliss excess [12]	Bliss excess [13]	Bliss excess [14]	Bliss excess [15]	Bliss excess [16]	Bliss excess [17]	Bliss excess [18]	Bliss excess (WM278 (Melanoma))
CCN(CCO)CCCOc1ccc2c(Nc3cc(CC(=O)Nc4cccc(F)c4)[nH]n3)ncnc2c1 [AZD2811] + C=CCn1c(=O)c2cnc(Nc3ccc(N4CCN(C)CC4)cc3)nc2n1-c1cccc(C(C)(C)O)n1 [AZD1775] (first compound max 1 µM, partner max 1 µM)	0.0208	-0.0576	0.0127	0.0002	0.156	0.0224	0.0198	0.0623	-0.012	-0.0606	-0.088	-0.0007	0.0398	0.0449	0.0335	-0.0017	-0.0481	-0.016	-0.087	-0.0199
CCN(CCO)CCCOc1ccc2c(Nc3cc(CC(=O)Nc4cccc(F)c4)[nH]n3)ncnc2c1 [AZD2811] + C[C@@H]1COCCN1C2=NC(=NC(=C2)C3(CC3)[S@](=N)(=O)C)C4=C5C=CNC5=NC=C4 [AZD6738] (first compound max 1 µM, 7x7, partner max 10 µM)	-0.0087	-0.0464	-0.0568	-0.009	-0.0592	-0.0107	-0.0583	0.0304	-0.0763	-0.0187	-0.0446	-0.0366	-0.0263	-0.0518	0.0143	0.0009	-0.0609	-0.0484	-0.0336	0.0062
CCN(CCO)CCCOc1ccc2c(Nc3cc(CC(=O)Nc4cccc(F)c4)[nH]n3)ncnc2c1 [AZD2811] + O=C(c1cc(Cc2n[nH]c(=O)c3ccccc23)ccc1F)N1CCN(C(=O)C2CC2)CC1 [Olaparib] (first compound max 1 µM, 7x7, partner max 10 µM)	0.0143	0.0019	0.0353	-0.0218	-0.0009	0.0203	-0.0232	0.025	0.0677	0.015	-0.0509	-0.0206	-0.04	0.0285	-0.0572	0.0029	-0.187	-0.013	-0.0246	-0.0107
CN(CCO)CC[C@H](CSc1ccccc1)Nc1ccc(S(=O)(=O)NC(=O)c2ccc(N3CCC([C@@H](O)c4ccccc4-c4ccc(Cl)cc4)CC3)cc2)cc1S(=O)(=O)C(F)(F)F [AZD4320] + C1CN(CCC1(C(=O)N[C@@H](CCO)C2=CC=C(C=C2)Cl)N)C3=NC=NC4=C3C=CN4 [Capivasertib] (first compound max 1 µM, 7x7, partner max 3 µM)	-0.0483	-0.0649	-0.0463	-0.0274	-0.0435	-0.0072	-0.0476	0.0014	-0.0904	-0.0088	-0.0691	-0.0264	-0.0768	0.0197	0.0036	-0.0321	0.0129	-0.0074	0.0595	-0.0378
CN(CCO)CC[C@H](CSc1ccccc1)Nc1ccc(S(=O)(=O)NC(=O)c2ccc(N3CCC([C@@H](O)c4ccccc4-c4ccc(Cl)cc4)CC3)cc2)cc1S(=O)(=O)C(F)(F)F [AZD4320] + C=CCn1c(=O)c2cnc(Nc3ccc(N4CCN(C)CC4)cc3)nc2n1-c1cccc(C(C)(C)O)n1 [AZD1775] (first compound max 1 µM, partner max 1 µM)	0.072	0.0158	0.0035	-0.0642	-0.054	0.0562	0.0006	0.0405	-0.0252	0.0457	0.0324	-0.0112	-0.0586	0.0738	0.0515	-0.0357	0.0069	0.0378	-0.0211	0.0846
CN(CCO)CC[C@H](CSc1ccccc1)Nc1ccc(S(=O)(=O)NC(=O)c2ccc(N3CCC([C@@H](O)c4ccccc4-c4ccc(Cl)cc4)CC3)cc2)cc1S(=O)(=O)C(F)(F)F [AZD4320] + CCN(CCO)CCCOc1ccc2c(Nc3cc(CC(=O)Nc4cccc(F)c4)[nH]n3)ncnc2c1 [AZD2811] (first compound max 1 µM, 7x7, partner max 1 µM)	-0.0339	0.0227	0.0354	-0.0189	-0.0189	-0.0338	-0.0263	0.0389	-0.0532	0.128	-0.0627	-0.0029	-0.0207	0.175	-0.0034	-0.0481	-0.0949	0.0845	-0.0063	0.0469
CN(CCO)CC[C@H](CSc1ccccc1)Nc1ccc(S(=O)(=O)NC(=O)c2ccc(N3CCC([C@@H](O)c4ccccc4-c4ccc(Cl)cc4)CC3)cc2)cc1S(=O)(=O)C(F)(F)F [AZD4320] + CN(C)CCCOc1ccc(-c2ccc3ncc4c(c3c2)n(C2CCOCC2)c(=O)n4C)cn1 [AZD0156] (first compound max 1 µM, 7x7, partner max 1 µM)	-0.0277	-0.0225	-0.005	-0.0272	-0.0438	0.0099	-0.0001	-0.0541	-0.0636	0.0221	-0.0427	-0.0308	-0.0538	0.0092	0.0211	-0.0417	-0.0158	-0.0277	0.0174	-0.0148
CN(CCO)CC[C@H](CSc1ccccc1)Nc1ccc(S(=O)(=O)NC(=O)c2ccc(N3CCC([C@@H](O)c4ccccc4-c4ccc(Cl)cc4)CC3)cc2)cc1S(=O)(=O)C(F)(F)F [AZD4320] + C[C@@H]1COCCN1C2=NC(=NC(=C2)C3(CC3)[S@](=N)(=O)C)C4=C5C=CNC5=NC=C4 [AZD6738] (first compound max 1 µM, 7x7, partner max 10 µM)	0.0832	-0.0313	0.0112	-0.0314	0.0099	-0.0108	0.0169	-0.0179	0.0029	-0.0534	0.0069	-0.0798	-0.0391	0.0532	0.072	-0.03	0.0076	-0.0357	0.0095	-0.0404
CN(CCO)CC[C@H](CSc1ccccc1)Nc1ccc(S(=O)(=O)NC(=O)c2ccc(N3CCC([C@@H](O)c4ccccc4-c4ccc(Cl)cc4)CC3)cc2)cc1S(=O)(=O)C(F)(F)F [AZD4320] + C[C@@H](Nc1cc(F)cc(F)c1)c1cc(C(=O)N(C)C)cc2c(=O)cc(N3CCOCC3)oc12 [AZD8186] (first compound max 1 µM, 7x7, partner max 3 µM)	-0.031	0.0037	0.046	-0.0289	0.0162	0.0229	0.0082	0.0394	-0.0351	0.0851	-0.0637	-0.0651	-0.0416	0.0353	0.0112	-0.0338	0.0092	0.008	0.0137	0.035
CN(CCO)CC[C@H](CSc1ccccc1)Nc1ccc(S(=O)(=O)NC(=O)c2ccc(N3CCC([C@@H](O)c4ccccc4-c4ccc(Cl)cc4)CC3)cc2)cc1S(=O)(=O)C(F)(F)F [AZD4320] + Cc1cc2ncnn2cc1Nc1ncc2c(n1)n(C1CCOCC1)c(=O)n2C [AZD7648] (first compound max 1 µM, 7x7, partner max 10 µM)	-0.0311	-0.0367	-0.0086	-0.0225	-0.0202	0.0221	-0.0299	-0.0232	-0.0326	0.0418	-0.0652	-0.0361	-0.0153	0.0041	0.0231	-0.0467	0.0212	-0.0357	0.0316	-0.0277
CN(CCO)CC[C@H](CSc1ccccc1)Nc1ccc(S(=O)(=O)NC(=O)c2ccc(N3CCC([C@@H](O)c4ccccc4-c4ccc(Cl)cc4)CC3)cc2)cc1S(=O)(=O)C(F)(F)F [AZD4320] + Cn1cnc2c(F)c(Nc3ccc(Br)cc3Cl)c(C(=O)NOCCO)cc21 [Selumetinib] (first compound max 1 µM, 7x7, partner max 3 µM)	0.0543	0.0577	-0.0051	0.0313	0.0267	0.0414	0.0288	-0.0445	-0.0301	0.0683	-0.0595	0.0043	0.0333	-0.0369	0.022	0.0307	0.0912	-0.0628	0.0113	0.0582
COc1nnc2ccc(N3CCC(c4ccc(OCCN5CCN(C)C(=O)[C@H]5C)cc4)CC3)nn12 [AZD5153] + C=CCn1c(=O)c2cnc(Nc3ccc(N4CCN(C)CC4)cc3)nc2n1-c1cccc(C(C)(C)O)n1 [AZD1775] (first compound max 1 µM, partner max 1 µM)	0.0309	-0.0176	-0.0228	0.056	-0.0738	-0.0516	-0.0138	-0.052	-0.0212	-0.0366	-0.0409	-0.0385	-0.0498	-0.0291	-0.114	-0.0898	-0.0044	-0.0426	-0.126	-0.0364
COc1nnc2ccc(N3CCC(c4ccc(OCCN5CCN(C)C(=O)[C@H]5C)cc4)CC3)nn12 [AZD5153] + CC1(C)CCC(CN2CCN(c3ccc(C(=O)NS(=O)(=O)c4ccc(NCC5CCOCC5)c([N+](=O)[O-])c4)c(Oc4cnc5[nH]ccc5c4)c3)CC2)=C(c2ccc(Cl)cc2)C1 [Venetoclax] (first compound max 1 µM, 7x7, partner max 1 µM)	-0.0697	-0.0434	-0.0461	-0.062	-0.0242	0.0439	0.0177	-0.0178	-0.009	0.0082	-0.0254	-0.0649	-0.0191	-0.136	-0.0442	-0.0369	-0.0221	-0.0838	-0.0493	-0.0188
